From patent publication US4178442A, “Novel cinnamoyles piperazines and homopiperazines, the method of preparing them and their application in therapeutics” (Delalande S. A., priority 1977, dated 1979)
Where two headings read alike, the source gives them in different places.

Columns and labels:
anaesthetized dog = assay: Antiangorous activity on anaesthetized dog: consumption of oxygen in the left ventricule and cardiac effort (KATZ's index); format: in vivo; details: for inhibition in vivo at 2.5 mg/kg / inhibition in vivo at 0.625 mg/kg / inhibition in vivo at […] / inhibition in vivo at 1.25 mg/kg: Canis lupus familiaris, iv; for inhibition in vivo at […]: 0.15 mg/kg i.v. slow perfusion
Summary of the method: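 Katz index taken as mean arterial pressure multiplied by ECG (D2) heart rate, and myocardial O2 use as coronary sinus flow via modified Morawitz cannula times coronary arteriovenous O2 difference. Animals: pentobarbital-anaesthetized dogs (30 mg/kg i.v.), test compounds infused slowly intravenously.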

in vivo = details: for LD50: read-out: Toxicity: LD50; for mortality: read-out: Toxicity (Mortality)
Source text: *LD50 or percentage of mortality which is given between brackets

[1] = 2.5 mg/kg i.v. slow perfusion, read-out: Diminution in consumption of O2
[2] = 2.5 mg/kg i.v. slow perfusion, read-out: Diminution in the cardiac effort (IK)
[3] = 0.625 mg/kg i.v. slow perfusion
[4] = 0.625 mg/kg i.v. slow perfusion, read-out: Diminution in consumption of O2
[5] = 0.625 mg/kg i.v. slow perfusion, read-out: Diminution in the cardiac effort (IK)
[6] = read-out: Diminution in consumption of O2
[7] = read-out: Diminution in the cardiac effort (IK)

Compound | Diminution in consumption of O2: in time (anaesthetized dog; 2.5 mg/kg i.v. slow perfusion) | Diminution in the cardiac effort (IK): in time (anaesthetized dog; 2.5 mg/kg i.v. slow perfusion) | inhibition in vivo at 2.5 mg/kg (anaesthetized dog; [1]) | inhibition in vivo at 2.5 mg/kg (anaesthetized dog; [2]) | LD50 (in vivo; iv) | also measured
COc1cc(/C=C/C(=O)N2CCN(CC(O)COc3ccc(CC#N)cc3)CC2)cc(OC)c1OC (stereo not drawn) [770 488] | 30 min | 15 min | 78% | 17% | 225 mg/kg | 
CCOc1c(OC)cc(/C=C/C(=O)N2CCN(CC(O)COc3ccc(C(C)=O)c4c3OCCO4)CC2)cc1OC (stereo not drawn) [770 504] | 15 min |  | 52% | 10% | 145 mg/kg | 
CCOC(=O)Nc1ccc(OCC(O)CN2CCN(C(=O)/C=C/c3cc(OC)c(OC)c(OC)c3)CC2)c2c1OCCO2 (stereo not drawn) [770 525] |  |  |  |  | 325 mg/kg | Diminution in consumption of O2: in time (anaesthetized dog; [3]): 60 min; Diminution in the cardiac effort (IK): in time (anaesthetized dog; [3]): 60 min; inhibition in vivo at 0.625 mg/kg (anaesthetized dog; [4]): 66%; inhibition in vivo at 0.625 mg/kg (anaesthetized dog; [5]): 43%
COc1cc(/C=C/C(=O)N2CCN(CC(O)COc3ccc(NC(=O)c4ccccc4)c4c3OCCO4)CC2)cc(OC)c1OC (stereo not drawn) [770 529] |  |  |  |  |  | Diminution in consumption of O2: in time (anaesthetized dog; [3]): 30 min; Diminution in the cardiac effort (IK): in time (anaesthetized dog; [3]): 30 min; inhibition in vivo at 0.625 mg/kg (anaesthetized dog; [4]): 56%; inhibition in vivo at 0.625 mg/kg (anaesthetized dog; [5]): 29%; mortality (in vivo; po, p.o.: 2000 mg/kg): 22%
COc1cc(/C=C/C(=O)N2CCN(CC(O)COc3ccc(NC(=O)C4CCCCC4)c4c3OCCO4)CC2)cc(OC)c1OC (stereo not drawn) [770 533] |  |  |  |  |  | Diminution in consumption of O2: in time (anaesthetized dog; [3]): 25 min; Diminution in the cardiac effort (IK): in time (anaesthetized dog; [3]): 25 min; inhibition in vivo at 0.625 mg/kg (anaesthetized dog; [4]): 30%; inhibition in vivo at 0.625 mg/kg (anaesthetized dog; [5]): 28%; mortality (in vivo; po, p.o.: 2000 mg/kg): 10%
COc1cc(/C=C/C(=O)N2CCN(CC(O)COc3ccc(C(C)=O)c4c3OCCO4)CC2)cc(OC)c1 (stereo not drawn) [770 538] | 15 min | 25 min | 54% | 28% | 198 mg/kg | 
CCC(=O)Nc1ccc(OCC(O)CN2CCN(C(=O)/C=C/c3cc(OC)c(OC)c(OC)c3)CC2)c2c1OCCO2 (stereo not drawn) [770 545] |  |  |  |  |  | Diminution in consumption of O2: in time (anaesthetized dog; [3]): 30 min; Diminution in the cardiac effort (IK): in time (anaesthetized dog; [3]): 15 min; inhibition in vivo at 0.625 mg/kg (anaesthetized dog; [4]): 61%; inhibition in vivo at 0.625 mg/kg (anaesthetized dog; [5]): 16%; mortality (in vivo; iv, 400 mg/kg i.v.): 40%
COc1cc(/C=C/C(=O)N2CCN(CC(O)COc3ccc(C#N)c4c3OCCO4)CC2)cc(OC)c1OC (stereo not drawn) [770 585] | 30 min | 30 min | 75% | 41% |  | mortality (in vivo; po, p.o.: 2000 mg/kg): 0%
COc1cc(/C=C/C(=O)N2CCN(CC(O)COc3cc(C(C)=O)cc4c3OCCO4)CC2)cc(OC)c1OC (stereo not drawn) [770 590] | 45 min | 45 min | 60% | 33% | 290 mg/kg | 
CCCCC(=O)Nc1ccc(OCC(O)CN2CCN(C(=O)/C=C/c3cc(OC)c(OC)c(OC)c3)CC2)c2c1OCCO2 (stereo not drawn) [770 601] |  |  |  |  |  | Diminution in consumption of O2: in time (anaesthetized dog; [3]): 30 min; Diminution in the cardiac effort (IK): in time (anaesthetized dog; [3]): 30 min; inhibition in vivo at 0.625 mg/kg (anaesthetized dog; [4]): 69%; inhibition in vivo at 0.625 mg/kg (anaesthetized dog; [5]): 25%; mortality (in vivo; po, p.o.: 2000 mg/kg): 22%
CCCC(=O)Nc1ccc(OCC(O)CN2CCN(C(=O)/C=C/c3cc(OC)c(OC)c(OC)c3)CC2)c2c1OCCO2 (stereo not drawn) [770 610] |  |  |  |  |  | Diminution in consumption of O2: in time (anaesthetized dog; [3]): 60 min; Diminution in the cardiac effort (IK): in time (anaesthetized dog; [3]): 45 min; inhibition in vivo at 0.625 mg/kg (anaesthetized dog; [4]): 56%; inhibition in vivo at 0.625 mg/kg (anaesthetized dog; [5]): 34%; mortality (in vivo; po, p.o.: 2000 mg/kg): 0%
COc1cc(/C=C/C(=O)N2CCN(CC(O)COc3ccc(NC(=O)C(C)(C)C)c4c3OCCO4)CC2)cc(OC)c1OC (stereo not drawn) [770 614] |  |  |  |  |  | Diminution in consumption of O2: in time (anaesthetized dog; [3]): 30 min; Diminution in the cardiac effort (IK): in time (anaesthetized dog; [3]): 30 min; inhibition in vivo at 0.625 mg/kg (anaesthetized dog; [4]): 49%; inhibition in vivo at 0.625 mg/kg (anaesthetized dog; [5]): 45%; mortality (in vivo; po, p.o.: 2000 mg/kg): 11%
COc1cc(/C=C/C(=O)N2CCN(CC(O)COc3ccc(NC(=O)NC(C)C)c4c3OCCO4)CC2)cc(OC)c1OC (stereo not drawn) [770 630] |  |  |  |  |  | inhibition in vivo at […] (anaesthetized dog; [6]): 58%; inhibition in vivo at […] (anaesthetized dog; [7]): 32%; mortality (in vivo; iv, 400 mg/kg i.v.): 40%
CCCCNC(=O)Nc1ccc(OCC(O)CN2CCN(C(=O)/C=C/c3cc(OC)c(OC)c(OC)c3)CC2)c2c1OCCO2 (stereo not drawn) [770 634] |  |  |  |  |  | inhibition in vivo at […] (anaesthetized dog; [6]): 69%; inhibition in vivo at […] (anaesthetized dog; [7]): 27%; mortality (in vivo; iv, 400 mg/kg i.v.): 30%
COc1cc(/C=C/C(=O)N2CCN(CC(O)COc3ccc(NC(=O)C(C)C)c4c3OCCO4)CC2)cc(OC)c1OC (stereo not drawn) [770 692] |  |  |  |  |  | Diminution in consumption of O2: in time (anaesthetized dog; [3]): 15 min; Diminution in the cardiac effort (IK): in time (anaesthetized dog; [3]): 30 min; inhibition in vivo at 0.625 mg/kg (anaesthetized dog; [4]): 60%; inhibition in vivo at 0.625 mg/kg (anaesthetized dog; [5]): 45%; mortality (in vivo; iv, 200 mg/kg i.v.): 60%
COc1cc(/C=C/C(=O)N2CCN(CC(O)COc3ccc(C(C)=O)c4c3OCCO4)CC2)cc(OC)c1OC(C)C (stereo not drawn) [770 727] | 15 min | 30 min | 57% | 27% | 130 mg/kg | 
COc1cc(/C=C/C(=O)N2CCN(CC(O)COc3ccccc3NC(C)=O)CC2)cc(OC)c1OC (stereo not drawn) [770 738] | 45 min | 45 min | 63% | 48% |  | mortality (in vivo; iv, 400 mg/kg i.v.): 40%
COc1cc(/C=C/C(=O)N2CCN(CC(O)COc3ccc(C(=O)NC4CCCCC4)c4c3OCCO4)CC2)cc(OC)c1OC (stereo not drawn) [770 831] |  |  |  |  |  | Diminution in consumption of O2: in time (anaesthetized dog; 1.25 mg/kg i.v. slow perfusion): 30 min; Diminution in the cardiac effort (IK): in time (anaesthetized dog; 1.25 mg/kg i.v. slow perfusion): 45 min; inhibition in vivo at 1.25 mg/kg (anaesthetized dog; 1.25 mg/kg i.v. slow perfusion, read-out: Diminution in consumption of O2): 45%; inhibition in vivo at 1.25 mg/kg (anaesthetized dog; 1.25 mg/kg i.v. slow perfusion, read-out: Diminution in the cardiac effort (IK)): 27%; mortality (in vivo; po, p.o.: 2000 mg/kg): 0%
COc1cc(/C=C/C(=O)N2CCN(CC(O)COc3cccc(NC(C)=O)c3)CC2)cc(OC)c1OC (stereo not drawn) [770 844] | 23 min | 30 min | 58% | 35% |  | mortality (in vivo; iv, 400 mg/kg i.v.): 0%
COc1cc(/C=C/C(=O)N2CCN(CC(O)COc3ccc(C(=O)Nc4ccccc4)c4c3OCCO4)CC2)cc(OC)c1OC (stereo not drawn) [770 848] |  |  |  |  |  | inhibition in vivo at […] (anaesthetized dog; [6]): 41%; inhibition in vivo at […] (anaesthetized dog; [7]): 5%; mortality (in vivo; iv, 400 mg/kg i.v.): 10%
CCC(=O)c1ccc(OCC(O)CN2CCN(C(=O)/C=C/c3cc(OC)c(OC)c(OC)c3)CC2)cc1 (stereo not drawn) [770 854] | 40 min | 40 min | 41% | 18% |  | mortality (in vivo; iv, 300 mg/kg i.v.): 20%
CNC(=O)c1ccc(OCC(O)CN2CCN(C(=O)/C=C/c3cc(OC)c(OC)c(OC)c3)CC2)c(OC)c1 (stereo not drawn) [770 855] | 60 min | 60 min | 60% | 45% | 260 mg/kg | 
COc1cc(/C=C/C(=O)N2CCN(CC(O)COc3ccc(C(C)C)cc3)CC2)cc(OC)c1OC (stereo not drawn) [770 858] |  |  |  |  | 260 mg/kg | inhibition in vivo at […] (anaesthetized dog; [6]): 16%; inhibition in vivo at […] (anaesthetized dog; [7]): 15%
COc1cc(/C=C/C(=O)N2CCN(CC(O)COc3ccc(C(C)(C)C)cc3)CC2)cc(OC)c1OC (stereo not drawn) [770 859] | 30 min | 60 min | 30% | 52% | 150 mg/kg | 
CNC(=O)Nc1ccc(OCC(O)CN2CCN(C(=O)/C=C/c3cc(OC)c(OC)c(OC)c3)CC2)cc1C (stereo not drawn) [770 898] | 45 min | 38 min | 45% | 36% |  | mortality (in vivo; iv, 400 mg/kg i.v.): 0%
COc1cc(/C=C/C(=O)N2CCN(CC(O)COc3ccc([N+](=O)[O-])c(C)c3)CC2)cc(OC)c1OC (stereo not drawn) [770 963] | 30 min | 30 min | 58% | 66% | 190 mg/kg | 
CNC(=O)Nc1ccc(OCC(O)CN2CCN(C(=O)/C=C/c3cc(OC)c(OC)c(OC)c3)CC2)c(OC)c1OC (stereo not drawn) [770 992] | 40 min | 30 min | 77% | 36% |  | mortality (in vivo; iv, 400 mg/kg i.v.): 0%
COc1cc(/C=C/C(=O)N2CCN(CC(O)COc3ccc(C(C)=O)cc3C)CC2)cc(OC)c1OC (stereo not drawn) [770 993, 1-[3-(2-methyl-4-acetyl)phenyl-2-hydroxy]-propyl-4-(3,4,5-trimethoxycinnamoyl)piperazine chlorhydrate] | 23 min | 13 min | 53% | 15% | 10 mg/kg | 
COc1cc(/C=C/C(=O)N2CCN(CC(O)COc3ccc([N+](=O)[O-])cc3Cl)CC2)cc(OC)c1OC (stereo not drawn) [771 124] | 15 min | 23 min | 34% | 13% | 270 mg/kg | 
CNC(=O)Nc1ccc(OCC(O)CN2CCN(C(=O)/C=C/c3cc(OC)c(OC)c(OC)c3)CC2)c2c1CCCC2 (stereo not drawn) [771 157] | 30 min | 30 min | 53% | 46% | 210 mg/kg | 
